From patent publication US12044684B2, “Methods for diagnosing an autistic spectrum disorder” (QATAR UNIVERSITY, priority 2018, dated 2024) come the findings set out here.

One data set is described as follows: Renal clearance (CL) of free adducts and unmodified amino acids deduced from plasma and spot urine. Type of data set: in vivo, human. The note with it: children with ASD compared to healthy control; P<0.001. An excerpt: In one embodiment, renal clearance amino acid adducts is deduced from the concentration of an amino acid adduct detected in a plasma and urine sample according to the following equation: CL (μl/mg creatinine or ml/mg creatinine)=[Analyte]Urine (nmol/mg creatinine)/[Analyte]Plasma (pmol/ml or nmol/ml).
Oxidation, nitration and glycation adduct residues are normalised to their amino acid residue precursors and given as mmol/mol amino acid modified; and related free adducts are given in nM. […] Renal clearance (CL) of glycation, oxidation and nitration free adducts and unmodified amino acids was deduced from plasma and spot urine collections: CL (μl/mg creatinine or ml/mg creatinine)=[Analyte]Urine (nmol/mg creatinine)/[Analyte]Plasma (pmol/ml or nmol/ml).
Turning to `N=C(N)NCCC[C@H](N)C(=O)O` [arg, arginine], the “decrease in renal clearance (CL)” value turned out to be 32%.

The same data set, now with this note: children with ASD with respect to healthy controls.
As to `NC(Cc1ccc(O)c(-c2cc(CC(N)C(=O)O)ccc2O)c1)C(=O)O` (stereo not drawn) [DT, dityrosine], the “renal clearance, change” value is on record as “decreased”.

Take `N[C@@H](CCCCN1C[C@@H](O)[C@@H](O)CC2NC(=NCCC[C@H](N)C(=O)O)N=C21)C(=O)O` (stereo partly drawn) [GSP, glucosepane]: the “renal clearance, change” value is listed as “decreased”.

As to `NC(CC(=O)c1ccccc1NC=O)C(=O)O` (stereo not drawn) [NFK, N-formylkynurenine], the “renal clearance, change” value is “increased”.

As to `N=C(N)NCCC[C@H](N)C(=O)O` [arg, arginine], the “renal clearance, change” value is reported as “decreased”.

As for `N[C@@H](CCC(=O)O)C(=O)O` [glu, glutamate], the “renal clearance, change” value is “decreased”.

Consider `CC(C)C[C@H](N)C(=O)O` [leu, leucine], for which the “renal clearance, change” value is recorded as “decreased”.

With `N[C@@H](Cc1ccccc1)C(=O)O` [phe, phenylalanine], the “renal clearance, change” value is “decreased”.

With `C[C@@H](O)[C@H](N)C(=O)O` [thr, threonine], the “renal clearance, change” value was “decreased”.

For the compound `N[C@@H](Cc1c[nH]c2ccccc12)C(=O)O` [trp, tryptophan], the “renal clearance, change” value is “increased”.

The data set is the same for the next values; noted with them: in vivo.
With `N=C(NCCC[C@H](N)C(=O)O)NCC(=O)O` [CMA, Nω-carboxymethylarginine], the “decrease in renal clearance (CL)” value was found to be 50% and the “renal clearance, change” value is given as “decreased”.
